According to patent US20120294879A1, “CONSENSUS SEQUENCE FOR INFLUENZA A VIRUS” (priority 2009, published 2012):

Experiments:
[1] = test system: HLA-A2, -A24, -B7, -DR2, -DR3 and -DR4 transgenic mice; type: cell-based; design: key to HLA allele this work (HLA restriction by ELISpot): —represents no positive ELISpot response
[2] = test system: splenocytes of HLA-DR3 (DRB1*0301) transgenic mice; type: cell-based; design: key to DR3: average IFN-γ spots forming cells per million splenocytes: — represents no positive ELISpot response
[3] = test system: splenocytes of HLA-B7 (B*0702) transgenic mice; type: cell-based; design: key to B7: average IFN-γ spots forming cells per million splenocytes: — represents no positive ELISpot response
[4] = test system: splenocytes of HLA-A24 (A*2402) transgenic mice; type: cell-based; design: key to A24: average IFN-γ spots forming cells per million splenocytes: — represents no positive ELISpot response
[5] = test system: splenocytes of HLA-DR2 (DRB1*1501) transgenic mice; type: cell-based; design: key to DR2: average IFN-γ spots forming cells per million splenocytes: — represents no positive ELISpot response
[6] = test system: splenocytes of HLA-DR4 (DRB1*0401) transgenic mice; type: cell-based; design: key: — represents no positive ELISpot response
HLA alleles = details: epitopes extracted from the IEDB, humans infected with influenza A; cited from earlier work
[7] = target: HLA-DR3 (HLA-DRA*0101 and -DRB1*0301), as expressed in HLA-DR3 transgenic mice (human); assay: cell-based or functional assay
[8] = target: HLA-DR4 (HLA-DRA*0101 and -DRB1*0401), as expressed in HLA-DR4 transgenic mice (human); assay: cell-based or functional assay

Row | Substance | HLA allele this work (HLA restriction by ELISpot) [1] | DR3: average IFN-γ spots forming cells per million splenocytes [2] | B7: average IFN-γ spots forming cells per million splenocytes [3] | A24: average IFN-γ spots forming cells per million splenocytes [4] | DR2: average IFN-γ spots forming cells per million splenocytes [5] | DR4: average IFN-γ spots forming cells per million splenocytes [6] | IFN-γ ELISpot at 10 µg/ml peptide, splenocytes of immunized HLA transgenic mice [7] | lowest concentration of peptide giving positive ELISpot response [7] | also measured
1 | MSLLTEVETYVLSIVPS | — |  |  |  |  |  |  |  | 
2 | GKGYMFESKSMKLRTQI | DR2 | — | — | — | 52 ± 2(1) IFN-γ spots forming cells per million splenocytes | — |  |  | DR2: lowest concentration of peptide giving positive ELISpot response in peptide titration [5]: 52 ± 2(1) μg/ml
3 | RGILEDEQMYQRCCNLF | both HLA class I and II alleles | 181 ± 10(0.1) IFN-γ spots forming cells per million splenocytes | — | 78 ± 4 IFN-γ spots forming cells per million splenocytes | — | — |  |  | DR3: lowest concentration of peptide giving positive ELISpot response in peptide titration [2]: 181 ± 10(0.1) μg/ml; A24: lowest concentration of peptide giving positive ELISpot response in peptide titration [4]: (0.1) μg/ml
4 | HENRMVLASTTAKAMEQ | DR4 | — | — | — | — | 165 ± 1(0.1) IFN-γ spots forming cells per million splenocytes |  |  | Published HLA alleles (reported human T cell epitopes) (HLA alleles): A3, A11, DRB1*0701
5 | LEVCFMYSDFHFINEQG | DR2 | — | — | — | 64 ± 11(1) IFN-γ spots forming cells per million splenocytes | — |  |  | DR2: lowest concentration of peptide giving positive ELISpot response in peptide titration [5]: 64 ± 11(1) μg/ml
6 | PB2 256-272 peptide of influenza virus A/New York/348/2003 (H1N1) |  |  |  |  |  |  | 169 | 0.1 µg/mL | 
7 | KTGGPIYKRVDGKWVRE | DR3 |  |  |  |  |  |  |  | 
8 | VLYDKEEIRRIWRQANN | DR3 | 501 ± 42(0.1) IFN-γ spots forming cells per million splenocytes | — | — | — | — |  |  | DR3: lowest concentration of peptide giving positive ELISpot response in peptide titration [2]: 501 ± 42(0.1) μg/ml; Published HLA alleles (reported human T cell epitopes) (HLA alleles): DRB1*1101
9 | PB1 680-696 peptide of influenza virus A/New York/348/2003 (H1N1) |  |  |  |  |  |  | 181 |  | 
10 | VLSAFDERRNKYLEEHP | — |  |  |  |  |  |  |  | Published HLA alleles (reported human T cell epitopes) (HLA alleles): DRB1*0101
11 | MDVNPTLLFLKVPAQNA | — |  |  |  |  |  |  |  | 
12 | PB1 554-570 peptide of influenza virus A/New York/348/2003 (H1N1) |  |  |  |  |  |  | 166 | 0.1 µg/mL | IFN-γ ELISpot at 10 µg/ml peptide, splenocytes of immunized HLA transgenic mice [8]: 76; lowest concentration of peptide giving positive ELISpot response [8]: 0.1 µg/mL
13 | GYTMDTVNRTHQYSERG | DR4 | — | — | — | — | 125 ± 11(0.1) IFN-γ spots forming cells per million splenocytes |  |  | 
14 | AGALASCMGLIYNRMGA | — |  |  |  |  |  |  |  | 
15 | M1 169-185 peptide of influenza virus A/New York/348/2003 (H1N1) |  |  |  |  |  |  | 120 | 0.1 µg/mL | 
16 | NP 37-53 peptide of influenza virus A/New York/348/2003 (H1N1) |  |  |  |  |  |  | 66 | 1 µg/mL | 
17 | RMVLASTTAK [reference compound] |  |  |  |  |  |  |  |  | Published HLA alleles (reported human T cell epitopes) (HLA alleles): HLA-A3 and -A11
18 | PB2 54-70 peptide of influenza virus A/New York/348/2003 (H1N1) |  |  |  |  |  |  | 499 | 0.1 µg/mL | 

Row | Substance | HLA allele this work (HLA restriction by ELISpot) [1] | DR3: average IFN-γ spots forming cells per million splenocytes [2] | B7: average IFN-γ spots forming cells per million splenocytes [3] | A24: average IFN-γ spots forming cells per million splenocytes [4] | DR2: average IFN-γ spots forming cells per million splenocytes [5] | DR4: average IFN-γ spots forming cells per million splenocytes [6] | IFN-γ ELISpot at 10 µg/ml peptide, splenocytes of immunized HLA transgenic mice [7] | lowest concentration of peptide giving positive ELISpot response [7] | also measured
19 | TQPTFSVQRNLPFDKTT |  | 41 ± 2(10) IFN-γ spots forming cells per million splenocytes | — | — | 110 ± 14(1) IFN-γ spots forming cells per million splenocytes | — |  |  | lowest peptide concentration giving positive IFN-γ ELISpot response (apparent functional avidity) [1]: solely at the highest peptide concentration; DR3: lowest concentration of peptide giving positive ELISpot response in peptide titration [2]: 41 ± 2(10) μg/ml; DR2: lowest concentration of peptide giving positive ELISpot response in peptide titration [5]: 110 ± 14(1) μg/ml
20 | NTYQWIIRNWETVKIQW | both HLA class I and II alleles | — | — | 322 ± 44 IFN-γ spots forming cells per million splenocytes | 96 ± 9(0.1) IFN-γ spots forming cells per million splenocytes | — |  |  | A24: lowest concentration of peptide giving positive ELISpot response in peptide titration [4]: (0.1) μg/ml; DR2: lowest concentration of peptide giving positive ELISpot response in peptide titration [5]: 96 ± 9(0.1) μg/ml
21 | PB1 120-136 peptide of influenza virus A/New York/348/2003 (H1N1) |  |  |  |  |  |  | 142 | 0.1 µg/mL | 
22 | NP 103-119 peptide of influenza virus A/New York/348/2003 (H1N1) |  |  |  |  |  |  | 614 | 0.1 µg/mL | 
23 | KWMMAMKYPITADKRIT | DR4 | — | — | — | — | 161 ± 18(0.1) IFN-γ spots forming cells per million splenocytes |  |  | 
24 | PB1 650-666 peptide of influenza virus A/New York/348/2003 (H1N1) |  |  |  |  |  |  | 142 | 0.1 µg/mL | IFN-γ ELISpot at 10 µg/ml peptide, splenocytes of immunized HLA transgenic mice [8]: 41; lowest concentration of peptide giving positive ELISpot response [8]: 0.1 µg/mL
25 | NP 109-125 peptide of influenza virus A/New York/348/2003 (H1N1) |  |  |  |  |  |  | 501 | 0.1 µg/mL | 
26 | NQPEWFRNILSIAPIMF |  | — | 60 ± 8 IFN-γ spots forming cells per million splenocytes | — | — | — |  |  | lowest peptide concentration giving positive IFN-γ ELISpot response (apparent functional avidity) [1]: solely at the highest peptide concentration; B7: lowest concentration of peptide giving positive ELISpot response in peptide titration [3]: (10) μg/ml
27 | FVANFSMELPSFGVSGV | — |  |  |  |  |  |  |  | 
28 | PB2 434-450 peptide of influenza virus A/New York/348/2003 (H1N1) |  |  |  |  |  |  | 444 | 0.1 µg/mL | 
29 | TQIQTRRSFEIKKLWDQ | — |  |  |  |  |  |  |  | 
30 | RCHRGDTQIQTRRSFEI | DR2 | — | — | — | 194 ± 47(0.1) IFN-γ spots forming cells per million splenocytes | — |  |  | DR2: lowest concentration of peptide giving positive ELISpot response in peptide titration [5]: 194 ± 47(0.1) μg/ml
31 | NKMARLGKGYMFESKSM | — |  |  |  |  |  |  |  | 
32 | PB1 471-487 peptide of influenza virus A/New York/348/2003 (H1N1) |  |  |  |  |  |  | 116 | 0.1 µg/mL | 
33 | PB1 340-356 peptide of influenza virus A/New York/348/2003 (H1N1) |  |  |  |  |  |  | 175 | 0.1 µg/mL | 
34 | PB2 464-480 peptide of influenza virus A/New York/348/2003 (H1N1) |  |  |  |  |  |  | 324 | 0.1 µg/mL | 
35 | LTIERMVLSAFDERRNK | — |  |  |  |  |  |  |  | 
